Assay results published in patent US12679801B2, “Amino lipid and preparation method and application thereof” (Shenzhen MagicRNA Biotechnology Co., Ltd., priority 2022, dated 2026).

Tests used:
[1] = test system: B16-OVA melanoma cells; assay: OVA mRNA LNP vaccine, in-vivo immunity and tumor treatment (Embodiment 15); set-up: species or system C57BL/6 mice; conditions: B16-OVA tumor-bearing mice, two intramuscular injections of LNP with 1 μg OVA-mRNA, 7 days apart
Description: Preparation method: the amino lipid compounds of the disclosure, DSPC, cholesterol and PEG2000-DMG were mixed according to a mole ratio of 50:10:38.5:1.5 and were dissolved in absolute ethyl alcohol. OVA mRNA was dissolved in a sodium acetate buffer solution (50 nM, pH=4.0). The obtained ethyl alcohol solution and the acetate buffer solution […] were mixed in a micro-fluidic chip according to a volume ratio of 1:3 by using a micro-fluidic preparation system to obtain lipid nanoparticles. Then, dialysis was performed for 6 h under the conditions of 1×PBS and temperature was controlled at 4° C. by using a dialysis cassettes or box (MWCO 20,000). Filtration was performed by a 0.22 μm microporous filtering membrane prior to use. The mass ratio of the amino lipid compound to OVA mRNA was about 10:1.
(§1) Animal preparation: 5-6-week-old female C57BL/6 mice with the body weight about 18 to 20 g were selected. The feeding environment was an SPF stage feeding room. Animal tests were strictly performed according to the guide of the national health institute and the animal ethics requirements.
(§2) In-vivo delivery: B16-OVA melanoma cells (1.5×10^5) were injected to the outer thighs of the mice through subcutaneous injection. When the tumor grew to 50 mm^3 (on the about 6th or 7th day after tumor inoculation), the mice began to inoculated vaccines, the animals were subjected to twice immunization through intramuscular injection of an LNP preparation containing 1 μg OVA-mRNA. An interval between first and second injections was 7 days. The tumor growth was measured for 3 times every week by a digital display calliper, and a calculation formula was […]. When the tumor size reached 1500 mm^3, the mice received euthanasia. Additionally, 60% of mice (E7C71A9 group) and 40% of mice (E6C71A12 group) respectively reached the complete relieving effect.

[2] = test system: HeLa cells; assay: In-vitro evaluation of E7C71A9, Compound A, B, C as Luc-mRNA vector (Embodiment 27, Table 14); type: cell-based; conditions: Luc-mRNA 100 ng/well, 16-20 h, relative to Lipofectamine3000, lipid:DSPC:cholesterol:PEG2000-DMG 43:10.5:45:1.5
Description: • Cell line: HeLa cell line • Culture medium: 1640 […] supplemented with 10% fetal calf serum • Screening form: 96-well plate cell transfection • Detection: fluorescence intensity detection by a multifunctional microplate reader. According to manufacturer's instructions, Lipofectamine3000 was used as a positive control group. • Method: a pipette was used for sample addition. The shown content is the content of a single well of a 96-well plate.
1. Synthesis of E7C71A9, Compound A, Compound B, and Compound C was performed as described above. And these four ionizable amino lipid compounds were respectively mixed with DSPC, cholesterol and PEG2000-DMG into absolute ethyl alcohol. according to a mole ratio of 43:10.5:45:1.5, The Luc-mRNA was dissolved into a sodium acetate buffer solution ([…], pH=5.0). The mixed lipid solution was taken out by a pipette, and was added into the Luc-mRNA solution to be sufficiently mixed. A proportion ratio of the ethyl alcohol solution to the sodium acetate buffer solution ([…], pH=5.0) was controlled to be 1:3, and a nanoparticle solution was prepared. A mass ratio of the amino lipid compound to luciferase mRNA (Luc mRNA) was about 10:1, and the mRNA consumption in each well was 100 ng.
2. After the lipid nanoparticle solution was incubated for 30 min at room temperature, 100 μL of fresh resuspended HeLa cells (1×10^4 cells) were added into each well of a 96-well all-white ELISA plate. Then, the lipid nanoparticle solution was added into the 96-well plate (10 μL for each well) by a pipette. The solution was placed into a 37° C. incubator containing 5% CO2 to be incubated.
3. After 16 h to 20 h of cell initial transfection, a substrate ONE-Glo™ Luciferase was added into cells at 100 μL/well, and after 2 min, detection was performed by a multifunctional or multimode microplate reader.
4. The relative transfection efficiency was calculated as follows: Relative transfection efficiency (%)=fluorescence intensity of LNP/fluorescence intensity of Lipofectamine3000×100%.

[3] = test system: BMDC primary cells; assay: Luc mRNA LNP transfection on BMDC primary cells (Embodiment 13, Table 3); type: cell-based, C57BL/6 mice; conditions: 16 h, ONE-Glo Luciferase
Description: Preparation method: the same as that described in Embodiment 7.
(§3) Animal preparation: 6-week-old female C57BL/6 mice with the body weight about 20 g were selected. The feeding environment was an SPF stage feeding room. Animal tests were strictly performed according to the guide of the national health institute and the animal ethics requirements.
(§4) Cell acquisition: C57BL/6 mice were killed through cervical dislocation, and were soaked for 5 min in 75% ethyl alcohol. Dissection was performed to obtain thigh and calf tibiae of the mice. Attached muscles were removed to expose sclerotin. Then, bone marrow in tibiae was blown out by using a 1 mL injector sucked with PBS. After the bone marrow was blown away, impurities were filtered away by a 50 μm filter screen. A red blood cell lysis buffer (3-4 mL) was added into an obtained filtrate. Then, after placement for 5 min, 800 g centrifugation was performed for 5 min to remove the supernatant. The obtained cells were placed into a 1640 culture medium (containing 10% fetal calf serum, 20 ng/mL GMCSF and 10 ng/ml IL4) to be resuspended, and were inoculated into a 6-well plate at an inoculation density of 100000 cells/ml culture medium. The materials were placed into a 37° C. cell incubator containing 5% CO2. Half liquid change was performed once every 2 days. Suspended cells and loose wall attached cells were collected on the seventh day, and were per well, and the volume of a culture medium was 100 μL.
(§5) Cell transfection: lipid nanoparticles coated with luciferase mRNA were added into a 96-well all-white ELISA plate laid with primary cells. The adding volume of the mRNA lipid nanoparticles in each well was controlled to be 10 μL. Then, the materials were put into a 37° C. incubator containing 5% CO2 for 16 h.
Transfection efficiency detection: 20 μL of a substrate ONE-Glo™ Luciferase was added into each well of a 96-well all-white ELISA plate. After 1 min, detection was performed by a multifunctional or multimode microplate reader.

[4] = test system: BMDC primary cells; assay: Luc mRNA LNP transfection of the four amino lipids on BMDC primary cells (Embodiment 28, Table 15); type: cell-based, C57BL/6 mice; conditions: Luc mRNA LNP 10 μL per well, 16 h, ONE-Glo Luciferase
Description: Preparation method: the same as that described above.
as §3, §4, §5
Transfection efficiency detection: 20 μL of a substrate ONE-Glo™ Luciferase was added into each well of a 96-well all-white ELISA plate. After 1 min, detection was performed by a multifunctional or multimode microplate reader. DLin-MC3 was used as a control.

[5] = test system: BMDC primary cells; assay: Luc mRNA LNP transfection on BMDC primary cells (Embodiment 21, Table 9); type: cell-based, C57BL/6 mice; conditions: 16 h, ONE-Glo Luciferase
Description: Preparation method: the same as that in Embodiment 17.
Animal preparation: 6-week-old female C57BL/6 mice with the body weight about 20 g were selected. A feeding environment was an SPF stage feeding room. Animal tests were strictly performed according to the guide of the national health institute and the animal ethics requirements.
as §4, with “to remove a supernatant. The” for “to remove the supernatant. The”, “and 10 ng/mL IL4) to” for “and 10 ng/ml IL4) to”, “and were inoculated to a 96-well all-white ELISA plate at the inoculation density of 20000 cells per well,” for “and were per well,”
as §5, with “white” for “all-white”
Transfection efficiency detection: 20 μL of a substrate ONE-Glo™ Luciferase was added into each well of a 96-well all-white ELISA plate, and after 1 min, detection was performed by a multifunctional or multimode microplate reader.

[6] = test system: B16-OVA melanoma cells; assay: OVA mRNA LNP vaccine, in-vivo immunity and tumor treatment (Embodiment 23); set-up: species or system C57BL/6 mice; conditions: B16-OVA tumor-bearing mice, two intramuscular injections of LNP with 5 μg OVA-mRNA, 7 days apart
Description: Preparation method: the amino lipid compounds of the disclosure, DSPC, cholesterol and PEG2000-DMG were mixed according to a mole ratio of 50:10:38.5:1.5 in absolute ethyl alcohol. OVA mRNA was dissolved in a sodium acetate buffer solution (50 nM, pH=4.0). The ratio of the ethyl alcohol solution to the acetate buffer solution (50 nM, pH=4.0) was controlled to be 1:3 by using two micro-injection pumps to prepare a coarse solution of the lipid nanoparticles in a micro-fluidic chip. Then, dialysis was performed for 6 h under the conditions of 1×PBS and temperature control at 4° C. by using a dialysis cassettes or box (MWCO 20,000). Before use, filtration was performed by a 0.22 μm microporous filtering membrane. A mass ratio of the amino lipid compound to OVA mRNA was about 8:1.
as §1
as §2, with “containing 5” for “containing 1”, “euthanasia.” for “euthanasia. Additionally, 60% of mice (E7C71A9 group) and 40% of mice (E6C71A12 group) respectively reached the complete relieving effect.”

[7] = test system: endosome/lysosome; conditions: background statement; cited from earlier work

For `CCCCCCCCCCC(COC(=O)C(CCCCCC)CCCCCCCC)OC(=O)CCCN(C)C` (stereo not shown) [E7C71A9, 2-((4-(Dimethylamino)Butanoyl)Oxy) Dodecyl 2-Hexyldecanoate], the “mice that reached the complete relieving effect” value [1] was 60%, the “result (survival curve, FIG. 4) compared with MC3 group” value [1] was “obviously superior to that of MC3 group” and the “tumor growth speed compared with MC3 group (FIG. 3)” value [1] was “obviously lower than that of MC3 group”. The “Relative Transfection Efficiency” value [2] was 2.0, the Luciferase luminescence intensity [3] was 8.8E+ 04 and the “Fluorescence intensity (transfection expression intensity)” value (“Fluorescence intensity” for short) [4] was 8.8E+04.

In the case of `CCCCCCCCCCC(CCCCOC(=O)C(CCCCCC)CCCCCCCC)OC(=O)CCCN(C)C` (stereo not shown) [Compound C], the “Relative Transfection Efficiency” value [2] was 0.39 and the “Fluorescence intensity” value [4] was 9.3E+03.

In the case of `CCCCCCCCCCC(COC(=O)C(CCCCCCCC)CCCCCCCC)OC(=O)CCCCN(C)C` (stereo not shown) [E7C115A11], the Luciferase luminescence intensity [5] was 2.4E+05, the “mice tumors completely disappeared” value [6] was 90% and the survival rate [6] was 100%. The “survival rate compared with MC3 group (FIG. 6)” value [6] was “obviously superior to that of MC3 group” and the “tumor growth speed compared with MC3 group (FIG. 5)” value [6] was “obviously lower than that of MC3 group”.

With `CCCCCCCCCCC(CCCOC(=O)C(CCCCCC)CCCCCCCC)OC(=O)CCCN(C)C` (stereo not shown) [Compound B] the “Relative Transfection Efficiency” value [2] was 0.45 and the “Fluorescence intensity” value [4] was 2.5E+04.

With `CCCCCCCCCCC(CCOC(=O)C(CCCCCC)CCCCCCCC)OC(=O)CCCN(C)C` (stereo not shown) [Compound A, 3-((4-(dimethylamino)butanoyl)oxy)tridecyl 2-hexyldecanoate] the “Relative Transfection Efficiency” value [2] was 0.62 and the “Fluorescence intensity” value [4] was 4.9E+04.

In the case of `CCCCCCCCCC(COC(=O)C(CCCCCC)CCCCCCCC)OC(=O)CCCCCN(C)C` (stereo not shown) [E6C71A12], the “mice that reached the complete relieving effect” value [1] was 40%, the “result (survival curve, FIG. 4) compared with MC3 group” value [1] was “obviously superior to that of MC3 group” and the “tumor growth speed compared with MC3 group (FIG. 3)” value [1] was “obviously lower than that of MC3 group”. For the same compound, the Luciferase luminescence intensity [3] was 7.3E+ 04.

In the case of `CCCCC/C=C\C/C=C\CCCCCCCCC(CCCCCCCC/C=C\C/C=C\CCCCC)OC(=O)CCCN(C)C` [DLin-MC3, DLin-MC3-DMA], the “RNA that escapes from the endosome/lysosome” value [7] is listed as 1%-4%.
